Data taken from PubChem BioAssay (NCI).
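How tested: cells in 96-well plates exposed to compound for 48 hours at five concentrations. GI50: concentration for 50% inhibition of growth. TGI marks complete inhibition of growth.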

How the values were obtained:
Assay in all cases: growth of human tumour cells (NCI), 48 h
HCT-116 colon = test system: HCT-116 colon
SR leukemia = test system: SR leukemia
NCI-H23 lung = test system: NCI-H23 lung
SK-MEL-5 melanoma = test system: SK-MEL-5 melanoma
MCF7 breast = test system: MCF7 breast
U251 CNS = test system: U251 CNS
K-562 leukemia = test system: K-562 leukemia
UO-31 renal = test system: UO-31 renal
A498 renal = test system: A498 renal
HCC-2998 colon = test system: HCC-2998 colon

CN1CC(c2ccccc2)C(O)(C2(c3ccccc3)CN(C)CC(c3ccccc3)C2=O)C(c2ccccc2)C1 (centres undefined)
TGI (HCT-116 colon): > 100 µM
TGI (SR leukemia): > 100 µM
TGI (NCI-H23 lung): > 100 µM
TGI (SK-MEL-5 melanoma): > 100 µM
TGI (MCF7 breast): > 100 µM
TGI (U251 CNS): > 100 µM
TGI (K-562 leukemia): > 100 µM
TGI (UO-31 renal): > 100 µM
TGI (A498 renal): > 100 µM

CC[C@@]1(OC(=O)CN(C)C)C(=O)OCc2c1cc1n(c2=O)Cc2cc3c(N)cccc3nc2-1
GI50 (SR leukemia): < 0.01 µM
TGI (SR leukemia): 0.176 µM
GI50 (NCI-H23 lung): 0.0277 µM
TGI (NCI-H23 lung): 0.684 µM
GI50 (HCC-2998 colon): 0.131 µM
TGI (HCC-2998 colon): 0.875 µM
GI50 (MCF7 breast): 0.0115 µM
TGI (MCF7 breast): > 100 µM
GI50 (U251 CNS): 0.0217 µM
TGI (U251 CNS): 0.249 µM
GI50 (K-562 leukemia): 0.0455 µM
TGI (K-562 leukemia): > 100 µM
GI50 (UO-31 renal): 0.0166 µM
TGI (UO-31 renal): 0.057 µM
GI50 (A498 renal): 0.0208 µM
TGI (A498 renal): 0.0987 µM

O=C(O)C1OC1C(=O)O (centres undefined)
TGI (HCT-116 colon): > 100 µM
TGI (SR leukemia): > 100 µM
TGI (NCI-H23 lung): > 100 µM
TGI (HCC-2998 colon): > 100 µM
TGI (SK-MEL-5 melanoma): > 100 µM
TGI (MCF7 breast): > 100 µM
TGI (U251 CNS): > 100 µM
TGI (K-562 leukemia): > 100 µM
TGI (UO-31 renal): > 100 µM
TGI (A498 renal): > 100 µM

OC(c1ccc(Cl)cc1)(c1ccc(Cl)cc1)c1cncnc1
TGI (HCT-116 colon): 28.6 µM
TGI (SR leukemia): > 100 µM
TGI (NCI-H23 lung): 61.6 µM
TGI (SK-MEL-5 melanoma): 27 µM
TGI (MCF7 breast): 47.8 µM
TGI (U251 CNS): 37.8 µM
TGI (K-562 leukemia): 69.8 µM
TGI (UO-31 renal): 31.3 µM
TGI (A498 renal): 47.6 µM

O=S(=O)(O)c1cc(S(=O)(=O)O)c2cc(N=Nc3c(O)ccc4ccccc34)ccc2c1
TGI (HCT-116 colon): > 100 µM
TGI (NCI-H23 lung): > 100 µM
TGI (SK-MEL-5 melanoma): > 100 µM
TGI (U251 CNS): > 100 µM
TGI (K-562 leukemia): > 100 µM
TGI (UO-31 renal): > 100 µM

O=C(O)C(O)(c1ccc(-c2ccccc2)cc1)c1ccc(-c2ccccc2)cc1
TGI (HCT-116 colon): 62.2 µM
TGI (SR leukemia): > 100 µM
TGI (NCI-H23 lung): 36.2 µM
TGI (SK-MEL-5 melanoma): 37.4 µM
TGI (U251 CNS): 32.7 µM
TGI (K-562 leukemia): > 100 µM
TGI (UO-31 renal): > 100 µM
TGI (A498 renal): 43.5 µM

Clc1ccc(C2CC(c3cccc(Nc4ccncc4)c3)=NN2c2ccc(Cl)cc2)cc1 (centres undefined)
GI50 (NCI-H23 lung): 1.83 µM
TGI (NCI-H23 lung): 3.49 µM
GI50 (HCC-2998 colon): 1.73 µM
TGI (HCC-2998 colon): 3.27 µM
GI50 (SK-MEL-5 melanoma): 1.74 µM
TGI (SK-MEL-5 melanoma): 3.15 µM
GI50 (UO-31 renal): 1.42 µM
TGI (UO-31 renal): 2.74 µM
GI50 (A498 renal): 1.56 µM
TGI (A498 renal): 2.94 µM

COc1cc2c(cc1OC)C1c3ccccc3CCN1CCC2 (centres undefined)
TGI (HCT-116 colon): > 100 µM
TGI (SR leukemia): > 100 µM
TGI (HCC-2998 colon): > 100 µM
TGI (SK-MEL-5 melanoma): > 100 µM
TGI (MCF7 breast): > 100 µM
TGI (U251 CNS): > 100 µM
TGI (K-562 leukemia): > 100 µM
TGI (UO-31 renal): > 100 µM

CCOC(=O)c1nc2ccccc2n(CC)c1=O
TGI (HCT-116 colon): > 100 µM
TGI (SR leukemia): > 100 µM
TGI (NCI-H23 lung): > 100 µM
TGI (HCC-2998 colon): > 100 µM
TGI (SK-MEL-5 melanoma): > 100 µM
TGI (MCF7 breast): > 100 µM
TGI (U251 CNS): > 100 µM
TGI (K-562 leukemia): > 100 µM
TGI (UO-31 renal): > 100 µM
TGI (A498 renal): > 100 µM

COc1ccc(NC(=S)NNC(=O)c2nsc3ccccc23)cc1
TGI (HCT-116 colon): > 100 µM
TGI (SR leukemia): > 100 µM
TGI (NCI-H23 lung): > 100 µM
TGI (HCC-2998 colon): > 100 µM
TGI (SK-MEL-5 melanoma): > 100 µM
TGI (U251 CNS): > 100 µM
TGI (K-562 leukemia): > 100 µM
TGI (UO-31 renal): 69.1 µM

Nc1c(OCC(=O)O)ccc2cc(S(=O)(=O)O)ccc12
TGI (HCT-116 colon): > 100 µM
TGI (NCI-H23 lung): > 100 µM
TGI (HCC-2998 colon): > 100 µM
TGI (SK-MEL-5 melanoma): > 100 µM
TGI (MCF7 breast): > 100 µM
TGI (U251 CNS): > 100 µM
TGI (K-562 leukemia): > 100 µM
TGI (UO-31 renal): > 100 µM
TGI (A498 renal): > 100 µM

c1ccc2c(c1)OCCc1cn[nH]c1-2
TGI (HCT-116 colon): > 100 µM
TGI (NCI-H23 lung): > 100 µM
TGI (HCC-2998 colon): > 100 µM
TGI (SK-MEL-5 melanoma): > 100 µM
TGI (MCF7 breast): > 100 µM
TGI (U251 CNS): > 100 µM
TGI (K-562 leukemia): > 100 µM
TGI (UO-31 renal): > 100 µM
TGI (A498 renal): > 100 µM

CO/N=C(/C)c1cccc(Nc2nc3ccc(Cl)cc3c3[nH]c4ccccc4c23)c1
TGI (HCT-116 colon): 14.7 µM
TGI (SR leukemia): 14.6 µM
TGI (NCI-H23 lung): 28.5 µM
TGI (SK-MEL-5 melanoma): 16.9 µM
TGI (MCF7 breast): 26.2 µM
TGI (U251 CNS): 29.1 µM
TGI (K-562 leukemia): 34.6 µM
TGI (UO-31 renal): 21.7 µM
TGI (A498 renal): 14.2 µM

O=NN1C(c2ccccc2)C2CCCC(C2=O)C1c1ccccc1 (centres undefined)
TGI (HCT-116 colon): > 63.1 µM
TGI (NCI-H23 lung): 48.3 µM
TGI (HCC-2998 colon): 34.4 µM
TGI (SK-MEL-5 melanoma): 35.7 µM
TGI (MCF7 breast): 46.4 µM
TGI (U251 CNS): > 84.9 µM
TGI (K-562 leukemia): 55.3 µM
TGI (UO-31 renal): > 76.2 µM
TGI (A498 renal): > 94.1 µM

CCCCN(CCCC)CCC(O)c1cc(-c2ccc(C(F)(F)F)cc2)nc(-c2ccc(C(F)(F)F)cc2)c1 (centres undefined)
TGI (HCT-116 colon): > 100 µM
TGI (SR leukemia): > 100 µM
TGI (NCI-H23 lung): > 100 µM
TGI (HCC-2998 colon): > 100 µM
TGI (MCF7 breast): > 100 µM
TGI (U251 CNS): > 100 µM
TGI (K-562 leukemia): > 100 µM
TGI (UO-31 renal): > 100 µM
TGI (A498 renal): > 100 µM

O=C(Nn1c(-c2cccs2)nc2ccc(I)cc2c1=O)c1ccccc1
TGI (HCT-116 colon): > 100 µM
TGI (SR leukemia): 61.4 µM
TGI (NCI-H23 lung): 67.4 µM
TGI (HCC-2998 colon): 58.6 µM
TGI (SK-MEL-5 melanoma): 76.8 µM
GI50 (MCF7 breast): 23.2 µM
TGI (MCF7 breast): > 100 µM
TGI (U251 CNS): 73.1 µM
GI50 (K-562 leukemia): 43.8 µM
TGI (K-562 leukemia): > 100 µM
TGI (UO-31 renal): 93.3 µM

CC1C2CCC3C(O)C2(CC(O)C2(O)C1CC(O)C2(C)C)CC3(C)O (centres undefined)
TGI (HCT-116 colon): > 100 µM
TGI (SR leukemia): > 100 µM
TGI (NCI-H23 lung): > 100 µM
TGI (HCC-2998 colon): > 100 µM
TGI (SK-MEL-5 melanoma): > 100 µM
TGI (MCF7 breast): > 100 µM
TGI (U251 CNS): > 100 µM
TGI (K-562 leukemia): > 100 µM
TGI (UO-31 renal): > 100 µM
TGI (A498 renal): > 100 µM

COc1ccc(C(=O)NC2=C(Cl)C(=O)c3ccccc3C2=O)cc1
TGI (HCT-116 colon): 1.52 µM
TGI (SR leukemia): > 19.6 µM
TGI (NCI-H23 lung): 6.05 µM
TGI (HCC-2998 colon): 16.9 µM
TGI (SK-MEL-5 melanoma): 4.59 µM
TGI (MCF7 breast): 17.8 µM
TGI (U251 CNS): 8.38 µM
TGI (K-562 leukemia): > 100 µM
TGI (UO-31 renal): 8.75 µM
TGI (A498 renal): 27.7 µM

NC1C=NNC1=O (centres undefined)
TGI (NCI-H23 lung): > 100 µM
TGI (HCC-2998 colon): > 100 µM
TGI (SK-MEL-5 melanoma): > 100 µM
TGI (U251 CNS): > 100 µM
TGI (K-562 leukemia): > 100 µM
TGI (UO-31 renal): > 100 µM

COC1CC(OC2CCC3(C)C(=CCC4C3C(OC(C)=O)C(OC(=O)CC(C)C)C3(C)C(C(C)=O)CCC43O)C2)OC(C)C1OC1CC(OC)C(OC2CC(OC)C(OC3OC(C)C(O)C(OC)C3O)C(C)O2)C(C)O1 (centres undefined)
TGI (HCT-116 colon): 60.6 µM
TGI (SR leukemia): 62 µM
TGI (NCI-H23 lung): > 100 µM
TGI (HCC-2998 colon): 70.3 µM
TGI (SK-MEL-5 melanoma): 42.7 µM
TGI (MCF7 breast): 93.6 µM
TGI (U251 CNS): > 100 µM
TGI (K-562 leukemia): > 100 µM
TGI (UO-31 renal): > 100 µM
TGI (A498 renal): > 100 µM

C[C@]12Cc3cnc(-c4ccccc4)nc3C[C@@H]1CC[C@@H]1[C@@H]2CC[C@@]2(C)[C@H]1CC[C@]2(C)O
TGI (HCT-116 colon): 48.8 µM
TGI (SR leukemia): 88.5 µM
TGI (NCI-H23 lung): 47.3 µM
TGI (HCC-2998 colon): 37.9 µM
TGI (SK-MEL-5 melanoma): 42.9 µM
TGI (MCF7 breast): 76.5 µM
TGI (U251 CNS): 41.4 µM
TGI (K-562 leukemia): 29.4 µM
TGI (UO-31 renal): 7.06 µM
TGI (A498 renal): 43.2 µM

CN(CCO)Cc1ncccc1O
TGI (SR leukemia): > 100 µM
TGI (NCI-H23 lung): > 100 µM
TGI (SK-MEL-5 melanoma): > 100 µM
TGI (MCF7 breast): > 100 µM
TGI (U251 CNS): > 100 µM
TGI (K-562 leukemia): > 100 µM
TGI (UO-31 renal): > 100 µM
TGI (A498 renal): > 100 µM
